Source: the supplement of paper PMC10307832

Columns and labels:
Experiment in all cases: relative viability (nuclei count vs DMSO), 5 days (fraction); higher = more cells survive
[1] = compound: CC(C)C[C@H](NC(=O)[C@H](CCc1ccccc1)NC(=O)CN1CCOCC1)C(=O)N[C@@H](Cc1ccccc1)C(=O)N[C@@H](CC(C)C)C(=O)[C@@]1(C)CO1 [Carfilzomib] + CC(=O)c1c(C)c2cnc(Nc3ccc(N4CCNCC4)cn3)nc2n(C2CCCC2)c1=O [Palbociclib] (partner 0.5 µM)
Summary of the method: (§1)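 Relative viability is defined as nuclei in treated wells over nuclei in vehicle wells. Duplicate plates were run and medians reported. Lung cancer cell lines in 1536-well plates were dosed by pin tool one day after seeding, with one drug or with a fixed anchor-drug dose plus five library-drug doses (not always all listed) in √10 steps, and nuclei were counted after 5 days.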

Crizotinib + Alpelisib = compound: C[C@@H](Oc1cc(-c2cnn(C3CCNCC3)c2)cnc1N)c1c(Cl)ccc(F)c1Cl [Crizotinib] + Cc1nc(NC(=O)N2CCC[C@H]2C(N)=O)sc1-c1ccnc(C(C)(C)C(F)(F)F)c1 [Alpelisib] (partner 2 µM)
Summary of the method: as §1

Crizotinib + AZD7762 = compound: C[C@@H](Oc1cc(-c2cnn(C3CCNCC3)c2)cnc1N)c1c(Cl)ccc(F)c1Cl [Crizotinib] + NC(=O)Nc1cc(-c2cccc(F)c2)sc1C(=O)N[C@H]1CCCNC1 [AZD7762] (partner 0.2 µM)
Summary of the method: as §1

Carfilzomib + Luminespib = compound: CC(C)C[C@H](NC(=O)[C@H](CCc1ccccc1)NC(=O)CN1CCOCC1)C(=O)N[C@@H](Cc1ccccc1)C(=O)N[C@@H](CC(C)C)C(=O)[C@@]1(C)CO1 [Carfilzomib] + CCNC(=O)c1noc(-c2cc(C(C)C)c(O)cc2O)c1-c1ccc(CN2CCOCC2)cc1 [Luminespib] (partner 0.01 µM)
Summary of the method: as §1

Cell Line	relative viability ([1]; first compound 0.001 µM)	relative viability ([1]; first compound 0.003162 µM)	relative viability ([1]; first compound 0.01 µM)	relative viability ([1]; first compound 0.03162 µM)	relative viability ([1]; first compound 0.1 µM)	relative viability (Crizotinib + Alpelisib; first compound 0.01 µM)	relative viability (Crizotinib + Alpelisib; first compound 1 µM)	relative viability (Crizotinib + AZD7762; first compound 0.01 µM)	relative viability (Crizotinib + AZD7762; first compound 0.03162 µM)	relative viability (Crizotinib + AZD7762; first compound 0.1 µM)	relative viability (Crizotinib + AZD7762; first compound 0.3162 µM)	relative viability (Crizotinib + AZD7762; first compound 1 µM)	relative viability (Carfilzomib + Luminespib; first compound 0.001 µM)	relative viability (Carfilzomib + Luminespib; first compound 0.003162 µM)	relative viability (Carfilzomib + Luminespib; first compound 0.01 µM)	relative viability (Carfilzomib + Luminespib; first compound 0.03162 µM)	relative viability (Carfilzomib + Luminespib; first compound 0.1 µM)	relative viability (Crizotinib + Alpelisib; first compound 0.03162 µM)	relative viability (Crizotinib + Alpelisib; first compound 0.1 µM)	relative viability (Crizotinib + Alpelisib; first compound 0.3162 µM)
NCI-H2087	0.194	0.343	0.192	0.0427	0.0568	1.02	1.21	1.39	1.49	1.24	1.24	1.48	0.212	0.146	0.215	0.0619	0.0448			
BEN	0.491	0.465	0.455	0.499	0.319	0.925	1.12	0.726	0.645	0.671	0.586	0.679	0.287	0.528	0.258	0.248	0.175	0.992	0.864	1.26
NCI-H1650	0.306	0.371	0.209	0.11	0.188								0.174	0.199	0.213	0.175	0.181			
A-427	0.543	0.56	0.515	0.509	0.188	1.04	1.06	0.709	0.766	0.773		0.684	0.837	1.18	1.05	0.141	0.112	1.05	1.11	
NCI-H1563						0.85	0.782						0.538	0.455	0.512	0.457	0.466	0.838	1.03	0.938
UMC-11	0.378	0.325	0.343	0.343	0.277	0.961	0.974						1.01	1.01	1.02	0.846	0.268	0.921	0.968	0.956
NCI-H2023	0.341	0.344	0.405	0.235	0.0653	0.523	0.499						0.81	0.795	0.626	0.362	0.0768	0.611	0.637	0.503
Calu-6						0.944	1.06												0.988	0.925
NCI-H2342	0.488	0.57	0.58	0.576	0.44			0.465	0.504	0.483	0.441	0.575	0.69	1.01	0.794	0.798	0.581			
NCI-H596						0.396	0.481	1.05	1.01	1.03		1.16	1.16	1.05	1.14	0.354	0.195	0.528	0.509	0.564
NCI-H522	0.873	0.977	0.848	1.08	0.274			0.852	0.792	0.752	0.908	0.846	1.09	1.57	1.16	1.26	0.367			
